Data from patent US12240862B2, “Inhibitors of peptidylarginine deiminases” (Gilead Sciences, Inc., priority 2020, dated 2025).

Target: T1, human PAD4 (Homo sapiens, UniProt Q9UM07)
T1 construct: human PAD4 (NM_012387), A2P663, was PCR amplified; His-SUMO (N, cleaved yes); made in house; host or cells: E. coli BL21(DE3)
Assay: In vitro PAD4 BAEE biochemical assay
Settings: human PAD4, BAEE substrate; 5 nM PAD4, 2 mM calcium chloride, 3 mM BAEE; geometric mean of multiple experiments
Outline: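 Tag-free recombinant hPAD4 (5 nM), 2 mM CaCl2, 3 mM BAEE, 50 mM MOPS pH 7.6, 2 mM DTT; 30 min compound preincubation, 2 h reaction, all 25 °C. EDTA quench; ammonia read via o-phthalaldehyde amine coupling, 1 h.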

T1 sequence (Q9UM07 2-663): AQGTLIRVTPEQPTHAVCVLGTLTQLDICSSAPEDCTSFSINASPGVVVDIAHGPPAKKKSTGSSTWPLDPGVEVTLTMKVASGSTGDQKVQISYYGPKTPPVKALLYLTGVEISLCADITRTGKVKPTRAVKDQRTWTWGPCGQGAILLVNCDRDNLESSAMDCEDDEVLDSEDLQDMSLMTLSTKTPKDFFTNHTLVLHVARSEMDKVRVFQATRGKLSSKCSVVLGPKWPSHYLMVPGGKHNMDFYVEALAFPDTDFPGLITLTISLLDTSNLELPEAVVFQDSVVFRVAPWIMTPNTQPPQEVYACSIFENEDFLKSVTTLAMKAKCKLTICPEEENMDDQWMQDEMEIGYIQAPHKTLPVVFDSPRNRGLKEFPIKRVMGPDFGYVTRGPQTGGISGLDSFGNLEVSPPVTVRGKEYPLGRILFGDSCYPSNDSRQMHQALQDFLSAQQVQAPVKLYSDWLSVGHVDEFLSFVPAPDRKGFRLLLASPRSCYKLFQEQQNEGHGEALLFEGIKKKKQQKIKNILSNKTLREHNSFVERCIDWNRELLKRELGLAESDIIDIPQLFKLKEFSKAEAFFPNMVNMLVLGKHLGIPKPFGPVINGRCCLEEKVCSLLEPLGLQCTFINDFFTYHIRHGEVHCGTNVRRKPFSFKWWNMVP

Row | Structure (SMILES) | IC50
1 | COc1cc(C(=O)N2C[C@H](N)CCN2C)cc2nc(-c3cc4ccc([C@@H](C)NC(=O)C56CC(F)(C5)C6)nc4n3CC3CC3)c(C)n12 [Example 615, N—((R)-1-(2-(7-((R)-5-amino-2-methylhexahydropyridazine-1-carbonyl)-5-methoxy-3-methylimidazo[1,2-a]pyridin-2-yl)-1-(cyclopropylmethyl)-1H-pyrrolo[2,3-b]pyridin-6-yl)ethyl)-3-fluorobicyclo[1.1.1]pentane-1-carboxamide] | 69.6 nM
2 | CS(=O)(=O)N(c1ccc2cc(-c3nc4cc(C(=O)N5CC[C@@H](F)[C@@H](N)C5)ccn4c3C3CC3)n(CC3CC3)c2n1)C(F)F [Example 394, ~{N}-[2-[7-[(3~{S},4~{R})-3-amino-4-fluoropiperidine-1-carbonyl]-3-cyclopropylimidazo[1,2-a]pyridin-2-yl]-1-(cyclopropylmethyl)pyrrolo [2,3-b]pyridin-6-yl]-~{N}-(difluoromethyl) methanesulfonamide] | 1070 nM
3 | COc1cc(C(=O)N2[C@H]3CC[C@@H]2[C@H](N)C3)cc2nc(-c3cc4ccc([C@@H](C)NC(=O)N5CC(OC(F)(F)F)C5)nc4n3CC3CC3)c(C)n12 [Example 202, ~{N}-[(1~{R})-1-[2-[7-[(1~{R},2~{R},4~{S})-2-amino-7-azabicyclo[2.2.1]heptane-7-carbonyl]-5-methoxy-3-methylimidazo [1,2-a]pyridin-2-yl]-1-(cyclopropylmethyl)pyrrolo [2,3-b]pyridin-6-yl]ethyl]-3-(trifluoromethoxy)azetidine-1-carboxamide] | 52 nM
4 | CCC1C(N)C2CCC1N2C(=O)c1cc(OC)n2c(C)c(-c3cc4ccc(N(C(F)F)S(C)(=O)=O)nc4n3CC3CC3)nc2c1 (single isomer, unassigned) [Example 346] | 2130 nM
5 | COc1cc(C(=O)N2CC3(CNC3)C2)cc2nc(-c3cc4ccc(N(C(F)F)S(C)(=O)=O)nc4n3CC3CC3)c(C)n12 [Example 367, ~{N}-[1-(cyclopropylmethyl)-2-[7-(2,6-diazaspiro[3.3]heptane-2-carbonyl)-5-methoxy-3-methylimidazo[1,2-a]pyridin-2-yl]pyrrolo[2,3-b]pyridin-6-yl]-~{N}-(difluoromethyl) methanesulfonamide] | 5310 nM
6 | COc1cc(C(=O)N2C[C@H]3C[C@H](OC)[C@@H]2[C@@H]3N)cc2nc(-c3cc4ccc(N(C(F)F)S(C)(=O)=O)nc4n3CC3CC3)c(C)n12 [Example 372, N-[2-[7-[(1S,4R,6S,7R)-7-amino-6-methoxy-2-azabicyclo[2.2.1]heptane-2-carbonyl]-5-methoxy-3-methyl-imidazo [1,2-a]pyridin-2-yl]-1-(cyclopropylmethyl)pyrrolo [2,3-b]pyridin-6-yl]-N-(difluoromethyl) methanesulfonamide] | 2000 nM
7 | COc1cc(C(=O)N2C[C@H]3CCCN[C@H]3C2)cc2nc(-c3cc4ccc([C@@H](C)NC(=O)c5ccccc5)nc4n3CC3CC3)c(C)n12 [Example 58, ~{N}-[(1~{R})-1-[2-[7-[(4~{a}~{R}, 7~{a}~{R})-1,2,3,4,4~{a},5,7,7~{a}-octahydropyrrolo[3,4-b]pyridine-6-carbonyl]-5-methoxy-3-methylimidazo[1,2-a]pyridin-2-yl]-1-(cyclopropylmethyl)pyrrolo[2,3-b]pyridin-6-yl]ethyl]benzamide] | 771 nM
8 | CS(=O)(=O)N(c1ccc2cc(-c3nc4cc(C(=O)N5CC[C@@H](N)C5)ccn4c3C3CC3)n(CC3CC3)c2n1)C(F)F [Example 393, ~{N}-[2-[7-[(3~{R})-3-aminopyrrolidine-1-carbonyl]-3-cyclopropylimidazo[1,2-a]pyridin-2-yl]-1-(cyclopropylmethyl)pyrrolo [2,3-b]pyridin-6-yl]-~{N}-(difluoromethyl) methanesulfonamide] | 2010 nM
